Test results: PubChem BioAssay (NCI)
Where “and” joins values, the source holds several entries; their conditions need not be identical. Equal values may be shown once.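 Briefly, cells in 96-well plates were exposed to five compound concentrations for 48 h, and endpoints were estimated by linear interpolation. The concentration for 50% growth inhibition is given as GI50. At the TGI there is no net growth.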

How the values were obtained:
Assay in all cases: NCI tumour cell line growth inhibition, 48 h
HCC-2998 colon = system: HCC-2998 colon
HCT-116 colon = system: HCT-116 colon
HCT-15 colon = system: HCT-15 colon
M14 melanoma = system: M14 melanoma
MALME-3M melanoma = system: MALME-3M melanoma
NCI-H226 lung = system: NCI-H226 lung
RXF 393 renal = system: RXF 393 renal
SK-MEL-28 melanoma = system: SK-MEL-28 melanoma
UACC-257 melanoma = system: UACC-257 melanoma

Compound	TGI (HCC-2998 colon)	TGI (HCT-116 colon)	TGI (HCT-15 colon) [µM]	TGI (M14 melanoma)	TGI (MALME-3M melanoma) [µM]	TGI (NCI-H226 lung)	TGI (RXF 393 renal)	TGI (SK-MEL-28 melanoma) [µM]	TGI (UACC-257 melanoma) [µM]	GI50 (HCC-2998 colon) [µM]	GI50 (HCT-116 colon) [µM]	GI50 (HCT-15 colon) [µM]	GI50 (M14 melanoma) [µM]	GI50 (MALME-3M melanoma) [µM]	GI50 (NCI-H226 lung) [µM]	GI50 (RXF 393 renal) [µM]	GI50 (SK-MEL-28 melanoma) [µM]	GI50 (UACC-257 melanoma) [µM]
O=C1C2c3[nH]c4ccccc4c3C3CCCCCC3C2C(=O)N1c1ccccc1 (centres undefined)	> 100 µM	62.7 µM	> 100	> 49.3 µM	41.1	> 64.3 µM	37.7 µM	97.7	84.6	–	–	–	–	–	–	–	–	–
COc1cc(C2C(C(=O)Nc3ccc([N+](=O)[O-])cc3)=C(C)NC(C)=C2C(=O)Nc2ccc([N+](=O)[O-])cc2)ccc1O	40.3 µM	30.9 µM	50.8	> 60.5 µM	60	> 63.2 µM	39 µM	31.3	54.6	–	–	–	–	–	–	–	–	–
CC(=O)[CH-]C(=O)c1ccccc1.CC(=O)[CH-]C(=O)c1ccccc1.CC(C)CCC[C@H](C)C1CCC2[C@@H]3CC=C4C[C@@H]([O-])CC[C@]4(C)C3CC[C@@]21C.CC(C)CCC[C@H](C)C1CCC2[C@@H]3CC=C4C[C@@H]([O-])CC[C@]4(C)C3CC[C@@]21C.Cl.[Ti+4] (some centres undefined)	> 25 µM	> 25 µM	> 25	> 25 µM	> 25	> 25 µM	> 25 µM	> 25	> 25	> 25	> 25	> 25	> 25	21.4	> 25	> 25	> 25	> 25
COc1cc(-c2ccc(NC(=O)SCCC(=O)O)cc2OC)ccc1NC(=O)SCCC(=O)O	–	> 100 µM	> 100	> 100 µM	> 100	> 100 µM	> 100 µM	> 100	> 100	–	–	–	–	–	–	–	–	–
COc1cc(/C=C/c2ccc(Br)cc2)cc(OC)c1OC	28.1 µM	17.1 µM	61.1	87.6 µM	76.2	56.6 µM	54.6 µM	48	> 95.5	–	–	–	–	–	–	–	–	–
COC1[C@H](NC(=O)OC(C)(C)C)C(=O)N1Cc1ccccc1 (some centres undefined)	> 100 µM	> 100 µM	> 100	> 100 µM	> 100	> 100 µM	> 100 µM	> 100	> 100	–	–	–	–	–	–	–	–	–
CCCCCCCCCCCCCCCCc1c(C(=O)OC)nc(NN)[nH]c1=O	> 50 µM	> 50 µM	> 50	> 50 µM	> 50	–	> 50 µM	> 50	> 50	–	–	–	–	–	–	–	–	–
CCN(CC)CC(=O)NC1c2ccccc2Oc2c(C)cccc21 (centres undefined)	> 100 µM	> 100 µM	> 100	> 100 µM	–	> 100 µM	> 100 µM	> 100	> 100	–	–	–	–	–	–	–	–	–
COc1ccc(-c2ccccc2)c2[nH]c3c(c12)CCNC3=O	> 100 µM	> 100 µM	> 100	> 100 µM	> 100	> 100 µM	> 100 µM	–	> 100	–	–	–	–	–	–	–	–	–
Cc1ccc(-c2nc3cc(Cl)c(Cl)cc3nc2C#N)cc1	–	> 100 µM	> 100	> 100 µM	> 100	> 100 µM	> 100 µM	> 100	> 100	–	90.3	> 100	> 100	92.7	> 100	> 100	> 100	> 100
O=C(N/C(=C\c1ccccc1Cl)c1nc2ccccc2[nH]1)c1ccccc1	91 µM	–	> 100	54.3 µM	74.8	–	91.5 µM	> 100	–	–	–	–	–	–	–	–	–	–
CC(=O)OC(C)(C)/C=C/C(=O)[C@](C)(O)[C@H]1[C@H](O)C[C@@]2(C)[C@@H]3CC=C4[C@@H](C=C(O)C(=O)C4(C)C)[C@]3(C)C(=O)C[C@]12C	1.56 µM and 0.542 µM and 0.962 µM	1.39 µM [middle of 4 runs]	–	0.722 µM and 1.01 µM	–	93.7 nM [middle of 4 runs]	46.1 nM [middle of 4 runs]	–	–	–	–	–	0.0193	–	–	–	–	–
O=C(CO[N+](=O)[O-])OC/C=C/c1ccccc1	> 100 µM	> 100 µM	> 100	> 100 µM	> 100	> 100 µM	> 100 µM	–	> 100	–	–	–	–	–	–	–	–	–
CC1CCC(=O)C(C(O)CC2CC(=O)N(c3ccccc3)C(=O)C2)C1 (centres undefined)	> 100 µM	> 100 µM	–	> 100 µM	> 100	> 100 µM	> 100 µM	> 100	> 100	–	–	–	–	–	–	–	–	–
CCOc1ccc(OCC)c([P+](c2ccccc2)(c2ccccc2)c2ccccc2)c1	11 µM	11.8 µM	–	12.6 µM	23.3	3.24 µM	15.7 µM	16.8	3.8	–	–	–	–	–	–	–	–	–
O=S(=O)(c1ccccc1)N1CN2CN(C1)CN(S(=O)(=O)c1ccccc1)C2	> 100 µM	> 100 µM	> 100	> 100 µM	–	> 100 µM	> 100 µM	> 100	> 100	–	–	–	–	–	–	–	–	–
COC1OC(CBr)C(OC(=O)c2ccccc2)C(OS(=O)(=O)c2ccc(C)cc2)C1Br (centres undefined)	> 100 µM	> 100 µM	> 100	> 100 µM	> 100	–	> 100 µM	> 100	> 100	–	–	–	–	–	–	–	–	–
